Reference: ChEMBL document CHEMBL1138225, “Synthesis and structure-activity relationships of 3,8-diazabicyclo[4.2.0]octane ligands, potent nicotinic acetylcholine receptor agonists” (J Med Chem, 2006)
Calls of active or inactive are those of the source. The rule behind the calls is not given here.

Legend:
[1] = molecular target: Neuronal acetylcholine receptor; alpha4/beta2 (Rattus norvegicus, UniProt P09483+P12390); assay: Displacement of [3H]cytisine from alpha-4-beta-2 ACHR in rat brain homogenate; assay type: tissue-based
Sequence of Neuronal acetylcholine receptor; alpha4/beta2 (Rattus norvegicus, UniProt P09483+P12390) (P09483 whole entry): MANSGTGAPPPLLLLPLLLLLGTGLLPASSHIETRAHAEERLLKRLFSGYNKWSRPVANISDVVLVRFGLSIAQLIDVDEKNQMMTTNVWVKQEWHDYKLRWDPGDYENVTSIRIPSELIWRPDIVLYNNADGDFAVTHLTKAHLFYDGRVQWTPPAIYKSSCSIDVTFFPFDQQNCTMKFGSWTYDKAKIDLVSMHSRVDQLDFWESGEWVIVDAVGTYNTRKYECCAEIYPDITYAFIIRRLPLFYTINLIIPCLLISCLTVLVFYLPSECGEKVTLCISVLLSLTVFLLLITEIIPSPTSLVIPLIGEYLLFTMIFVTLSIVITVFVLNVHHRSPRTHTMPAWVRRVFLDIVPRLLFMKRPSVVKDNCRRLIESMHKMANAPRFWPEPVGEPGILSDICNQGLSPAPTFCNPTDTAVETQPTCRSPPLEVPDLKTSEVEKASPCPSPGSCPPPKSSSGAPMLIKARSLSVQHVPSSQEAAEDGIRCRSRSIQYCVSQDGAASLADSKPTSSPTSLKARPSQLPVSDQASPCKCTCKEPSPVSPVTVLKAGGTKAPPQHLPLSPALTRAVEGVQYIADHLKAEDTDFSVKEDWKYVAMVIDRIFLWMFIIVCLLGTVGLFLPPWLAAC
Sequence of Neuronal acetylcholine receptor; alpha4/beta2 (Rattus norvegicus, UniProt P09483+P12390) (P12390 whole entry): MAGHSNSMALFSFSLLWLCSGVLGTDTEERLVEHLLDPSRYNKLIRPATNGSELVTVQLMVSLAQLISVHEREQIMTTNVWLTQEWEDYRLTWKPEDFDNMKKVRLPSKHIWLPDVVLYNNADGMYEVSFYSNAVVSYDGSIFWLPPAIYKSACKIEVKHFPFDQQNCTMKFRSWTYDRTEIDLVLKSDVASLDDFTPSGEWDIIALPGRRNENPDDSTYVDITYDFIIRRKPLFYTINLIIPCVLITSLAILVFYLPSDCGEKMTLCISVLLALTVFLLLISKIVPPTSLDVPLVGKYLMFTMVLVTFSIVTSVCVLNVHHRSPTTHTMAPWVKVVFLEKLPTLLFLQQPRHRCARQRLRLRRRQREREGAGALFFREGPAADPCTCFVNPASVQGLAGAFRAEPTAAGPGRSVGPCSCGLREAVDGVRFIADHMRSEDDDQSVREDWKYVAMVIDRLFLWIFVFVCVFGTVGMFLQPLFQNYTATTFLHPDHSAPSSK

[2] = molecular target: T1, Neuronal acetylcholine receptor; alpha3/beta4 (Homo sapiens, UniProt P30926+P32297); assay: Maximal agonist activity at human alpha-3-beta-4 ACHR expressed in HEK293 cells assessed as change in intracellular calcium concentration by FLIPR relative to nicotine; assay type: functional, cell-based
T1 sequence (P30926 whole entry): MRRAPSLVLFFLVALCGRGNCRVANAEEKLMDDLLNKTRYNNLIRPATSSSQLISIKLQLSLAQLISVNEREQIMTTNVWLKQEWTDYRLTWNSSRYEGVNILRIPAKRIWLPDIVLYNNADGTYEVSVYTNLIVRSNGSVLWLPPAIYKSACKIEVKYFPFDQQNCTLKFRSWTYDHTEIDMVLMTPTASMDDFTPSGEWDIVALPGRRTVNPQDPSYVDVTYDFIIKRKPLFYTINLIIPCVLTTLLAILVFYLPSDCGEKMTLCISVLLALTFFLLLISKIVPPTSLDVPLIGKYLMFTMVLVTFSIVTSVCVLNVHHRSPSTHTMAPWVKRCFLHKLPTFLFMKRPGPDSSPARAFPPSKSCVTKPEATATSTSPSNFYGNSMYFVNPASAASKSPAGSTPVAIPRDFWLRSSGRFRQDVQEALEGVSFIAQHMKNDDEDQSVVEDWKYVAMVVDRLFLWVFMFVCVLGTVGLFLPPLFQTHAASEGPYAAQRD
T1 sequence (P32297 whole entry): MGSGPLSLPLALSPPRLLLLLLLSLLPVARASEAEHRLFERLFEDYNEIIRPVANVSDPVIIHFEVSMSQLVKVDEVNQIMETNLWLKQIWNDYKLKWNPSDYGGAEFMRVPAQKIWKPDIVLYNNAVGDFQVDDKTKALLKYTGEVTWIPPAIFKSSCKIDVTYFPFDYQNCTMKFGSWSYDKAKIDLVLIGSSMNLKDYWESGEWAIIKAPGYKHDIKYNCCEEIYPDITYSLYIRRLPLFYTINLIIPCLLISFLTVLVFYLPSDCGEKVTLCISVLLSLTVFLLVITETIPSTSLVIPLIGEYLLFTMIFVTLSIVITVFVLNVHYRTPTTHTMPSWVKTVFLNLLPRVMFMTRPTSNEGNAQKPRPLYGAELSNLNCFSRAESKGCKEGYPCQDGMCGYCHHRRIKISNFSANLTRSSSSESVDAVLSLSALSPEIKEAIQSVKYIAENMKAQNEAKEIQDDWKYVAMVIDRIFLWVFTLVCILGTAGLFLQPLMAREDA

[3] = test system: Rattus norvegicus; assay: Activity in rat formalin model measured as reduction in flinches at 6.2 umol/kg, ip; assay type: functional; set-up: scale not given: the % may be the effect or the level left
[4] = molecular target: T1, Neuronal acetylcholine receptor; alpha3/beta4; assay: Agonist activity at human alpha-3-beta-4 ACHR expressed in HEK293 cells assessed as change in intracellular calcium concentration by FLIPR; assay type: functional, cell-based
[5] = molecular target: T2, Neuronal acetylcholine receptor; alpha4/beta2 (Homo sapiens, UniProt P17787+P43681); assay: Agonist activity at human alpha4beta2 ACHR expressed in HEK293 cells assessed as change in intracellular calcium concentration by FLIPR; assay type: functional, cell-based
T2 sequence (P17787 whole entry): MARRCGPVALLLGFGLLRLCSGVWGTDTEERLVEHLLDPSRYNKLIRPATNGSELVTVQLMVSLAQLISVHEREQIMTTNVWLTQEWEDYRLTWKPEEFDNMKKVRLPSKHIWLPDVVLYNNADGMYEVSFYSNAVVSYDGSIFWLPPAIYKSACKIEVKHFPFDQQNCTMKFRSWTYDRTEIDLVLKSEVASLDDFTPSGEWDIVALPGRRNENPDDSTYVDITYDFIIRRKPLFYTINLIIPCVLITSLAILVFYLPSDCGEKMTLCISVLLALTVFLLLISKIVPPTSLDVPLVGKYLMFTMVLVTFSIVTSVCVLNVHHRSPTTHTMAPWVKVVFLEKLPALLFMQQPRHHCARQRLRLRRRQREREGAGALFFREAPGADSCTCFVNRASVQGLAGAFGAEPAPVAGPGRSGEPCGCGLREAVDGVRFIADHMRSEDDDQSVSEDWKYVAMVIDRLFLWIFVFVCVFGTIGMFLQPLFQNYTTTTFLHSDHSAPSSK
T2 sequence (P43681 whole entry): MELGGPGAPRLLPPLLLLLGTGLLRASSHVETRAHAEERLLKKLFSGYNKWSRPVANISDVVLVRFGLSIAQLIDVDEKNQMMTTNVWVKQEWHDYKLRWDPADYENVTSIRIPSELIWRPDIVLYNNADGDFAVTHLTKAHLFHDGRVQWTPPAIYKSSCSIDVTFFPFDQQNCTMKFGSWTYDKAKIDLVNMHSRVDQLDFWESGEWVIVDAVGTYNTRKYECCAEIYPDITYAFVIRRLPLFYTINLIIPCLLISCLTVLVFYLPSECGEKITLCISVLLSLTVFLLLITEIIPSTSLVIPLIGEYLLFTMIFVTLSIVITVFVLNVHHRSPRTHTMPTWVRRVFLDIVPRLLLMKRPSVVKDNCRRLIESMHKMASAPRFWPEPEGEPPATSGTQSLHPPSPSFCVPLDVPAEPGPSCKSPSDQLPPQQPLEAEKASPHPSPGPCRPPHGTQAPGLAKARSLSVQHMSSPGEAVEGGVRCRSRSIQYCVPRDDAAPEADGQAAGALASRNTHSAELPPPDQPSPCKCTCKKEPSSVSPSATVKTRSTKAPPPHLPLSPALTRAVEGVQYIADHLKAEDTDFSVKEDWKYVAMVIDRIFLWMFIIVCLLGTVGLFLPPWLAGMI

[6] = molecular target: T2, Neuronal acetylcholine receptor; alpha4/beta2; assay: Maximal agonist activity on human alpha-4-beta-2 ACHR expressed in HEK293 cells assessed as change in intracellular calcium concentration by FLIPR relative to nicotine; assay type: functional, cell-based
[7] = test system: Rattus norvegicus; assay: Induction of behavioral side effects in rat formalin model upto 19 umol/kg, […]; assay type: functional, organism-based
[8] = test system: Rattus norvegicus; assay: Activity in rat formalin model measured as reduction in flinches at 19 umol/kg, ip; assay type: functional; set-up: scale not given: the % may be the effect or the level left
[9] = organism: Homo sapiens; assay: Selectivity for human alpha4beta2 ACHR over alpha-3-beta-4 ACHR; assay type: functional
[10] = organism: Rattus norvegicus; assay: Activity in rat formalin model measured as reduction in flinches; assay type: functional, organism-based

Row | Structure (SMILES) | Ki [1] [nM] | Activity [2] [%] | Activity [3] [%] | EC50 [4] [nM] | EC50 [5] [nM] | Activity [6] [%] | Activity [7] | Activity [8] | Ratio EC50 [9] | Activity [10]
1 | Brc1cc(N2CC[C@H]3CN[C@H]3C2)cnc1Br | 0.014 | 117 | 99 | 8.2 | 7.8 | 209 | inactive |  |  | 
2 | NC(=O)c1cc(N2C[C@H]3CCNC[C@H]32)cnc1Br |  | 90 |  | 7460 | 340 | 133 |  |  |  | 
3 | Clc1ccc(N2CC[C@H]3CN[C@H]3C2)nn1 | 0.15 | 128 |  | 64.8 | 78.3 | 222 |  |  |  | 
4 | c1cncc(N2C[C@@H]3CCNC[C@@H]32)c1 |  | 98 |  | 1700 | 410 | 105 | Active |  |  | 
5 | Cc1cc(N2CC[C@H]3CN[C@H]3C2)cnc1Cl | 0.031 | 123 |  | 7.2 | 7.2 | 207 |  |  |  | 
6 | CCOc1cncc(N2CC[C@H]3CN[C@H]3C2)c1 | 0.052 | 103 |  | 124 | 620 | 116 |  |  |  | 
7 | COc1cncc(N2C[C@@H]3CCNC[C@@H]32)c1 | 4.4 | 47 |  | 63500 | 7690 | 44 |  |  |  | 
8 | COc1ccc(N2CC[C@H]3CN[C@H]3C2)cn1 | 0.98 | 88 |  | 1100 | 2200 | 96 |  |  |  | 
9 | O=[N+]([O-])c1ccc(N2CC[C@@H]3CN[C@@H]3C2)cn1 | 2.4 | 98 |  | 830 | 110 | 114 | Active |  |  | 
10 | N#Cc1cncc(N2C[C@@H]3CCNC[C@@H]32)c1 | 0.5 | 91 |  | 2560 | 2190 | 64 |  |  |  | 
11 | Brc1cc(N2CC[C@@H]3CN[C@@H]3C2)cnc1Br | 0.024 | 100 |  | 110 | 76 | 86 |  | 26% |  | 
12 | Clc1cc(N2CC[C@@H]3CN[C@@H]3C2)cnc1Cl | 0.027 | 111 |  | 110 | 82 | 79 |  | 55% |  | 
13 | N#Cc1cc(N2C[C@H]3CCNC[C@H]32)cnc1Br | 0.3 | 100 |  | 238 | 172 | 157 |  |  |  | 
14 | N#Cc1cncc(N2C[C@H]3CCNC[C@H]32)c1 | 2.6 | 71 |  | 5560 | 1930 | 83 |  |  |  | 
15 | Clc1ccc(N2CC[C@H]3CN[C@H]3C2)cn1 | 0.019 | 151 |  | 29 | 13 | 114 |  |  | 2 | 
16 | N/C(=N/O)c1cncc(N2CC[C@@H]3CN[C@@H]3C2)c1 |  | 99 |  |  |  | 194 |  |  |  | 
17 | Clc1cc(N2C[C@@H]3CCNC[C@@H]32)cnc1Cl |  | 69 |  | 4110 | 271 | 60 | Active |  |  | 
18 | Brc1cncc(N2CC[C@H]3CN[C@H]3C2)c1 | 0.024 | 122 |  | 76 | 150 | 148 |  |  |  | 
19 | Clc1cc(N2CC[C@H]3CN[C@H]3C2)cnc1Cl | 0.025 | 132 |  | 9.9 | 12 | 221 |  |  |  | 
20 | c1cncc(N2CC[C@H]3CN[C@H]3C2)c1 | 0.035 | 121 |  | 48 | 71 | 171 |  |  |  | 
21 | COc1cc(N2C[C@H]3CCNC[C@H]32)cnc1Br | 0.085 | 98 |  | 202 | 200 | 120 |  |  |  | 
22 | Clc1ccc(N2CC[C@@H]3CN[C@@H]3C2)nn1 | 2.7 | 113 |  | 394 | 359 | 129 | Active |  |  | 
23 | Cc1cc(N2CC[C@@H]3CN[C@@H]3C2)cnc1Cl | 0.037 | 103 |  | 71 | 47 | 90 | inactive |  |  | 
24 | COc1cncc(N2CC[C@@H]3CN[C@@H]3C2)c1 | 0.18 | 86 |  | 4500 | 2700 | 35 |  |  |  | inactive
25 | COc1ccc(N2CC[C@@H]3CN[C@@H]3C2)cn1 | 2.7 | 93 |  | 2400 | 4980 | 54 |  |  |  | 

Row | Structure (SMILES) | Ki [1] [nM] | Activity [2] [%] | Activity [3] [%] | EC50 [4] [nM] | EC50 [5] [nM] | Activity [6] [%] | Activity [7] | Activity [8] | Ratio EC50 [9] | Activity [10]
26 | NC(=O)c1cc(N2C[C@@H]3CCNC[C@@H]32)cnc1Br | 2.8 | 73 |  | 23300 | 1490 | 75 |  |  |  | 
27 | Clc1ccc(N2C[C@H]3CCNC[C@H]32)cn1 | 0.8 | 93 |  | 1520 | 216 | 102 |  |  |  | 
28 | c1cncc(N2C[C@H]3CCNC[C@H]32)c1 |  | 97 |  | 1540 | 1400 | 84 |  |  |  | 
29 | CCOc1cncc(N2CC[C@@H]3CN[C@@H]3C2)c1 | 0.16 | 86 |  | 2800 | 1350 | 18 |  |  |  | 
30 | Cc1cc(N2C[C@H]3CCNC[C@H]32)cnc1Cl | 0.24 | 103 |  | 298 | 134 | 142 |  | 75% |  | 
31 | Clc1cc(N2C[C@H]3CCNC[C@H]32)cnc1Cl | 0.3 | 103 |  | 339 | 176 | 127 |  |  |  | 
32 | c1cncc(N2CC[C@@H]3CN[C@@H]3C2)c1 | 0.059 | 118 |  | 260 | 330 | 112 |  |  |  | 
33 | COc1cncc(N2C[C@H]3CCNC[C@H]32)c1 | 0.56 | 88 |  | 4360 | 1100 | 104 |  |  |  | 
34 | c1ncc(N2C[C@@H]3CCNC[C@@H]32)cn1 (single isomer, unassigned) | 1.6 | 93 |  | 9940 | 8420 | 104 |  |  |  | 
35 | Clc1ccc(N2CC[C@@H]3CN[C@@H]3C2)cn1 | 0.032 | 125 |  | 25 | 24 | 130 |  |  |  | 
36 | c1ncc(N2CC[C@H]3CN[C@H]3C2)cn1 | 0.04 | 121 |  | 108 | 350 | 181 |  |  |  | 
37 | COc1cc(N2C[C@@H]3CCNC[C@@H]32)cnc1Br | 1.4 | 84 |  | 2980 | 1690 | 65 |  |  |  | 
38 | COc1cncc(N2CC[C@H]3CN[C@H]3C2)c1 | 0.038 | 103 |  | 180 | 130 | 178 | inactive |  |  | Dose-dependent effect
39 | N#Cc1cncc(N2CC[C@@H]3CN[C@@H]3C2)c1 | 0.065 | 116 |  | 490 | 1900 | 76 |  | inactive |  | 
40 | N#Cc1cc(N2C[C@@H]3CCNC[C@@H]32)cnc1Br | 0.07 | 88 |  | 794 | 109 | 104 | Active |  |  | 
41 | COc1cc(N2CC[C@H]3CN[C@H]3C2)cnc1Br | 0.027 | 120 |  | 8 | 21 | 217 |  |  |  | 
42 | Cc1cncc(N2CC[C@@H]3CN[C@@H]3C2)c1 | 0.064 | 87 |  | 1400 | 650 | 54 | inactive |  |  | 
43 | N#Cc1cc(N2CC[C@H]3CN[C@H]3C2)cnc1Br | 0.027 | 133 |  | 4.4 | 6.1 | 215 |  |  |  | 
44 | N#Cc1cncc(N2CC[C@H]3CN[C@H]3C2)c1 | 0.12 | 127 | 80 | 1000 | 1900 | 112 |  |  |  | 
45 | Brc1cncc(N2CC[C@@H]3CN[C@@H]3C2)c1 (single isomer, unassigned) | 0.053 | 91 |  | 950 | 1000 | 58 |  |  |  | 
46 | O=[N+]([O-])c1ccc(N2CC[C@H]3CN[C@H]3C2)cn1 | 1.5 | 119 |  | 390 | 100 | 196 |  |  |  | 
47 | COc1cc(N2CC[C@@H]3CN[C@@H]3C2)cnc1Br | 0.069 | 108 |  | 160 | 360 | 40 |  |  |  | 
48 | c1ncc(N2CC[C@@H]3CN[C@@H]3C2)cn1 | 0.2 | 106 |  | 1020 | 4390 | 79 |  |  |  | 
49 | Cc1cc(N2C[C@@H]3CCNC[C@@H]32)cnc1Cl | 0.043 | 91 |  | 1910 | 76.1 | 103 | Active | inactive |  | 
